From EP0603160A2, “Compositions for in-situ active compound assembly” (SCRIPPS CLINIC AND RESEARCH FOUNDATION, priority 1986, dated 1988)
Like-named read-outs stand apart in the source and are kept apart here.

How the values were obtained:
[1] = tested on: HeLa cells; assay: HeLa cell cytotoxicity, trypan blue exclusion; assay type: cell-based, human; details: for percentage of cells intact: 400 µM, each alone, two hours, Figure 5a; for HeLa cell toxicity: AOG or dodecanedial alone, Figure 5b
Experimental: These cells were grown in suspension in Joklik's median supplemented with calf serum, centrifuged and then taken up into Dulbecco's modified Eagles medium (DMEM) without serum. Cell suspensions containing 2-4 x 10⁶ cell/ml in DMEM containing 1% ethanol were incubated at 37°C, with or without decanal. AOG, or combinations thereof. Cell membrane damage was measured by hand counting of cells using trypan blue exclusion as the criterion.

[2] = tested on: S cerevisiae; assay: Yeast growth in YPD medium with AOG and decanal; assay type: cell-based; details: 24 hours
Experimental: The effect of the combination of AOG and decanal on yeast was also determined. S cerevisiae in YPD medium at cell densities of 10⁵-10⁶ cell/ml used as starting concentrations. When no reagents were added to the medium, the cell density increased about 90 fold in 24 hours. […] When 10 µg/ml decanal plus 44 µg/ml AOG were added in combination, all yeast died after 24 hours.

[3] = tested on: human erythrocytes; assay: Erythrocyte lysis (light scattering, hemoglobin release, cell counts); assay type: cell-based; details: for time for which erythrocytes are stable: solutions containing either DAPG or CHD alone
Experimental: The putative product shown in Reaction Scheme 1 is evidently cytotoxic, since a suspension of human erythrocytes in a solution containing both CHD and DAPG in phosphate buffered saline is 95% lysed or aggregated within 1-14 hours under physiological conditions (the precise time depending on the concentrations) whereas erythrocytes are stable for at least 24 hours in plain PBS, and also in solutions containing either DAPG or CHD alone. In addition, when erythrocytes are incubated with mixtures of CHD and DAPG, a substantial induction period is observed during which no lysis or aggregation occurs, due to the time lag in formation of the cytotoxic material. Whether lysis or aggregation results depends on relative concentration; excess CHD results in lysis, equimolar concentrations in aggregation. The cytotoxicity may be due to the formation of the polycation, analogous to the known antitumor activity of poly-(L-lysine); Arnold, L. J. Proc. Natl Acad Sci (supra).
For erythrocytes blood was collected and stored with KEDTA at 4°C and erythrocytes prepared within 48 hours by centrifuging three times in phosphate-buffered saline (PBS, pH 7.4). Suspensions containing 3 x 10⁷ cells/ml were prepared in PBS containing 1% EtOH, but no […] cations, and incubated at 37°C with the compounds or mixtures to be tested.
On the other hand, while a mixture of 28 µM AOG and 28 µM decanal (reagent grade, Aldrich Chemical Co.) results in less than 10% lysis within the same 20 minute time frame, as the time of incubation increases, lysis increases also, as indicated by hemoglobin release measured by (1) light absorption of the supernatant at 400 nm. (2) decrease of light scattering by the cells at 700 nm, and (3) direct cell counts using a microscope. […] Suspensions of 3.5 x 10⁷ cells/ml prepared as above in PBS (1% EtOH, no divalent cations, pH 7.4) were incubated at 37°C, and cell lysis was followed by observing the decrease in absorbance at 700 nm. For 0% lysis, A₇₀₀ is 1.0; 0.2 for 100% lysis).
The curves were calculated using a nonlinear least squares fitting algorithm (Arc, H, et al, Statistical Methods (1970) Harper & Row, pp. 100-111) and based on a modified Hill equation (Cantor, C.R. et al, supra) wherein percent hemolysis is calculated as 100% divided by (1+(K/C))^α [formula] . In this equation, K is the median effect concentration, C is the concentration of DIOG (or of decanal and AOG), and α is the Hill constant.

[4] = tested on: Ox blood erythrocytes; assay: Erythrocyte killing with or without 1% serum, hemoglobin release; assay type: cell-based; details: Bos taurus, 1 h, read-out: cell killing measured by hemaglobin release, 1% Serum
Experimental: (§1) Ox blood erythrocytes were incubated for one hour in PBS at pH 6.6 in the presence or absence of 1% serum at 37°C. […] However, at 4-16 µM DIOG, the percentage of cells killed increased from 4.3 to 60.9. On the other hand, in the absence of serum, 7.2.% cells were killed even without the addition of DIOG, and a steady increase in killing occurred as the DIOG concentration increased, reaching 100% of cells killed at 8 µM.

[5] = tested on: Ox blood erythrocytes; assay: Erythrocyte killing with or without 1% serum, light scattering; assay type: cell-based; details: Bos taurus, Erythrocyte, 1 h, pH 6.6; for mortality at 448 µM: Decanal 0, AOG maintained at 448 µM according to the text (Table 4)
Experimental: as §1
The AOG concentration was maintained at a high level (448 µM) and the decanal concentration varied from 0-16 µM corresponding the previous DIOG concentration range. In this protocol, similar results were obtained for cells incubated in the absence of serum, but in the presence of 1% serum the curve was slightly displaced so that the cells appeared more protected as shown in Table 4.

[6] = tested on: Ox blood erythrocytes; assay: as above; assay type: cell-based; details: Bos taurus, 1 h, pH 6.6, 896 µM AOG, Decanal 0µM (Table 4), read-out: % cells killed (0% serum)
[7] = tested on: some tumors; details: on a weight basis; Arnold et al, Proc Natl Acad Sci USA (1979); cited from earlier work
[8] = tested on: S. typhimurium; assay: Filter disk growth inhibition on agar LB plates at pH 7.4 and pH 5; assay type: cell-based, Salmonella typhimurium; details: 20 nanomoles on filter disk
Source text: The formation of the foregoing chelate is also effective in inhibiting the growth of Salmonella typhimurium. This inhibition can be tested using agar disks or in culture suspension. The effect of the formation of chelate can be studied in this regard by conducting the experiments at pH 5 and pH 7.4; at pH 5 the formation of the chelate is encouraged while at […] the reaction rate is much slower.
The inhibition was spread between the disks rather than circling each disk as was the case for the PCPH inhibition. Thus, control of pH is a selective factor in controlling the self-assembly of the cytotoxic chelator.

[9] = J Pharm Sci (1971) 60:1128-1131; cited from earlier work
[10] = tested on: Monilinia sp; assay: Fungal growth on YPD medium; assay type: cell-based; details: 2 mM of either reagent alone
Experimental: Similar results are obtained using Candida albicans, a human infective agent, as the target organism. […] Also, the growth of Monilinia sp, the causal agent in peach brown rot, is inhibited by the combination of the foregoing reagents, but not by either individually. No growth is observed after four days on YPD medium when 250 µM each of the pyridine-2-carboxaldehyde and 2-hydrazinopyridine are included.

[11] = tested on: S. cerevisiae YP52; assay: Growth inhibition of yeast by PC and HP in YPD medium, roller drum; assay type: cell-based; details: each alone, concentrations below 2 mM, 20 hours at 30°C in YPD medium
Experimental: Pyridine-2-carboxaldehyde (PC) and 2-hydrazino-pyridine (HP) are each alone nontoxic to S. cerevisiae YP52 yeast at concentrations below 2 mM when provided over 20 hours at 30°C in YPD medium in a roller drum. However, when supplied together, these compounds are capable of inhibiting the growth of S. cerevisiae YP52 at 30 °C in YPD. When placed together in the medium at concentrations of 1 mM + 1 mM and at 0.5 mM + 0.5 mM. substantial inhibition occurs. The adduct. pyridino-2-carboxaldehyde (2-pyridyl hydrazone) (PCPH) of the formula: [drawing 25] is a chelator and has a structural similarity to 2,2': 6',2'' terpyridine which is a known cytotoxin (McFadyen et al, J Med Chem (1985) 28:1113-1116). The second order rate constant for this reaction is 2 l/mol-sec at 37 °C, pH6, in phosphate-buffered saline.

[12] = tested on: Erythrocytes; assay: Antidote to self assembly, erythrocyte lysis; assay type: cell-based
Experimental: In this example, cyclohexanone is used as an antidote to prevent the assembly of AOG plus decanal to produce the biologically active agent DIOG, which was described in a previous example. Erythrocytes, prepared as above, were exposed to 20 µM AOG plus 20 µM decanal.

[13] = tested on: S. typhimurium strain 14028R; assay: Suspension culture CFU at pH 5 versus pH 7.4; assay type: cell-based; details: NFZ alone at 10 µM; 20 hours at 37°C in PBS, 1% DMSO
Experimental: This selectivity was also shown in suspension cultures when S. typhimurium strain 14028R was incubated for 20 hours at 37°C in PBS at either pH 5 or pH 7.4 containing 1% DMSO. When no drugs were added, the culture contained 8 x 10⁶ colony forming units (CFU)/ml for pH 5 and 1.5 x 10⁷ CFU/ml for pH 7.4. The self assembling drugs tested in this instance were semicarbazide (SC), […] (NFA) and their reaction product nitrofurazone (NFZ). Either the […] product, or mixtures of various concentrations of the precursors NC + NA were added after inoculation of the medium. While the maximum toxic selectivity (the ratio of CFU/ml at pH 7.4 as compared to CFU/ml at pH 5) observed for, NFZ alone, at 10 µM was about 100, a mixture of 1500 µM SC + 7 µM NFA gave a toxic selectivity ratio of over 8000.

CCCCCCCCCC=O [decanal]
percentage of cells intact [1]: considerably less dramatic decreases | increase in cell density ([2]; 20 µg/ml decanal): 11 fold | lysis ([3]; 28 µM or 80 µM decanal alone, after more than 400 minutes, Figure 2): less than 5%

O=CCCCCCCCCCCC=O [dodecanedial]
HeLa cell toxicity [1]: neither is very toxic alone

CCCCCCCCNC(=N)NN [AOG, N-amino-N'-1-octyl guanidine]
percentage of cells intact [1]: considerably less dramatic decreases | HeLa cell toxicity [1]: neither is very toxic alone | hemolysis at 896 µM ([4]; pH 6.6, 896 µM AOG, Decanal Concentration 0 (Table 5)): 0% | hemolysis at 448 µM ([4]; pH 6.6, Decanal Concentration 0, 448 µM AOG according to the text (Table 5), comma separates duplicates): 0% | mortality at 896 µM ([5]; 896 µM AOG, Decanal 0µM (Table 4), read-out: % cells killed (1% serum)): 1.3% | mortality at 448 µM ([5]; read-out: % cells killed (0% serum)): 0% | mortality at 448 µM ([5]; read-out: % cells killed (1% serum)): 0% | mortality at 896 µM [6]: 6.4% | increase in cell density ([2]; 88 µg/ml AOG): threefold increase | hemolysis at 28 µM ([3]; Homo sapiens, Erythrocyte, 400 min, pH 7.4, 28 µM, 100 µM or 200 µM AOG alone, after more than 400 minutes, Figure 2): < 5% | lysis ([3]; either alone at 100 µM): did not result in any observable lysis

poly-(L-lysine) [poly-(L-lysine) of Mr 3 kd]
toxicity relative to poly-(L-lysine) having Mr of 70 kd [7]: less than 1/20

C(=NNc1ccccn1)c1ccccn1 [PCPH, pyridino-2-carboxaldehyde (2-pyridyl hydrazone)]
growth inhibition of S. typhimurium ([8]; pH 5): inhibited growth | growth inhibition of S. typhimurium ([8]; pH 7.4): inhibited growth

CN(Cc1cnc2nc(N)nc(N)c2n1)c1ccc(C(=O)N[C@@H](CCC(=O)O)C(=O)O)cc1 [methotrexate]
half-life of the drug in serum [9]: about 2 hours

NNc1ccccn1 [HP, 2-hydrazino-pyridine]
growth of Monilinia sp [10]: substantial growth | toxicity to S. cerevisiae YP52 [11]: nontoxic

O=CCCCCCCCCC=O [DDD, decanedialdehyde, CHO(CH₂)₈CHO]
lysis ([3]; either alone at 100 µM): did not result in any observable lysis

O=C1CCCCC1 [cyclohexanone]
lysis ([12]; 20 mM cyclohexanone plus 10 µM AOG alone, no decanal): do not give lysis | lysis ([12]; cells first exposed to 20 µM AOG for 2 hours, then 20 µM decanal and 20 mM cyclohexanone): Extensive lysis | lysis ([12]; pretreatment 2 hours with 20 mM cyclohexanone alone, then 20 µM AOG plus 20 µM decanal): extensive lysis | lysis ([12]; pretreatment 2 hours with 20 mM cyclohexanone plus 20 µM AOG, then 20 µM decanal added): only slow lysis

O=C1CCC(=O)CC1 [CHD, cyclohexane-1,4-dione]
hemolysis at 60000 µM ([3]; Homo sapiens, Erythrocyte, pH 7.4, 60 mM CHD alone, after 24 hours): 18% | time for which erythrocytes are stable [3]: at least 24 hours

NC(=O)N/N=C/c1ccc([N+](=O)[O-])o1 [NFZ, nitrofurazone]
maximum toxic selectivity (the ratio of CFU/ml at pH 7.4 as compared to CFU/ml at pH 5) [13]: about 100

O=Cc1ccccn1 [PC, Pyridine-2-carboxaldehyde]
growth of Monilinia sp [10]: substantial growth | toxicity to S. cerevisiae YP52 [11]: nontoxic

NNC(=Nc1ccccc1)NN [DAPG, 1,2-diamino-3-phenyl guanididium iodide]
hemolysis at 3000 µM ([3]; Homo sapiens, Erythrocyte, pH 7.4, 3 mM DAPG alone, after 24 hours): 18% | time for which erythrocytes are stable [3]: at least 24 hours
